Patent US20240317727A1 (Duke University, priority 2018, published 2024)

Experiments:
SN12C = assay: NCI60 cell growth and viability: SN12C; type: cell-based; settings: Renal Cancer, two days
[1] = tested on: cancer cell lines in the NCI60 collection; assay: NCI60 collection, cell growth and viability (overall); type: cell-based; settings: incubated for two days, FIG. 8
Method: FIG. 8 is a graph showing the compounds of the disclosure suppress the growth of a broad range of cancer types. […] The cancer origins of the different cell lines are indicated with different colors.
HSF1 binding compounds were tested for its activity in suppressing the growth of a broad range of cancer types. For example, Compound 0017 was incubated for two days with a diverse series of cancer cell lines in the NCI60 collection and cell growth and viability were measured, and the results are shown in Table 4.

SK-MEL-2 = assay: NCI60 cell growth and viability: SK-MEL-2; type: cell-based; settings: SK-MEL-2, Melanoma, two days
UO-31 = assay: NCI60 cell growth and viability: UO-31; type: cell-based; settings: UO-31, Renal Cancer, two days
KM12 = assay: NCI60 cell growth and viability: KM12; type: cell-based; settings: KM12, Colon Cancer, two days
MDA-MB-231 = assay: NCI60 cell growth and viability: MDA-MB-231; type: cell-based; settings: MDA-MB-231, Breast Cancer, two days
OVCAR-5 = assay: NCI60 cell growth and viability: OVCAR-5; type: cell-based; settings: OVCAR-5, Ovarian Cancer, two days
786-0 = assay: NCI60 cell growth and viability: 786-0; type: cell-based; settings: 786-0, Renal Cancer, two days
[2] = tested on: C4-2 malignant prostate cancer cells vs BPH-1 non-tumorigenic prostate cells; assay: AlamarBlue cell viability, C4-2 vs BPH-1; type: cell-based, human; settings: 96 hours, AlamarBlue assay, FIG. 6A
Method: The cells were treated for 96 hours with the indicated concentrations of the compounds of the disclosure and cell viability was measured with the AlamarBlue assay. FIG. 6B illustrates the results of Compound 0017 used in a 7-week Maximal Tolerated Dose (MTD) study conducted in mice (3 mice identified as 118, 119 and 120). […] After sacrificing the mice on the last day of the administration, mouse liver and heart tissue was isolated, messenger RNA extracted and the transcript abundance of the HSF1 target gene, Hsp70, was evaluated by qRT-PCR relative to the internal RNA control, GAPDH. The results of the vehicle-treated versus Compound 0017-treated experiments were compared.
Based on the chemical structure of Compound 0017 and its activity, and of other HSF1-interacting chemicals identified in the screen, additional derivatives were designed, synthesized and evaluated for binding to HSF1 and preferential inhibition of metastatic prostate cancer cells (C4-2) versus benign prostate cells (BPH-1).

U251 = assay: NCI60 cell growth and viability: U251; type: cell-based; settings: U251, CNS Cancer, two days
SF-295 = assay: NCI60 cell growth and viability: SF-295; type: cell-based; settings: SF-295, CNS Cancer, two days
TK-10 = assay: NCI60 cell growth and viability: TK-10; type: cell-based; settings: TK-10, Renal Cancer, two days
NCI-H460 = type: cell-based; settings: NCI-H460, Non-Small Cell Lung Cancer, two days
CCRF-CEM = assay: NCI60 cell growth and viability: CCRF-CEM; type: cell-based; settings: Leukemia, two days
NCI-H23 = type: cell-based; settings: NCI-H23, Non-Small Cell Lung Cancer, two days
PC-3 = assay: NCI60 cell growth and viability: PC-3; type: cell-based; settings: PC-3, Prostate Cancer, two days
BT-549 = assay: NCI60 cell growth and viability: BT-549; type: cell-based; settings: BT-549, Breast Cancer, two days
SF-268 = assay: NCI60 cell growth and viability: SF-268; type: cell-based; settings: SF-268, CNS Cancer, two days
[3] = Homo sapiens, 48 h, read-out: log10 [GI50 (M)] (converted)
[4] = Homo sapiens, 48 h, read-out: log10 [LC50 (M)] (converted)

Structure (SMILES): O=C(Nc1ccc(F)cc1)Nc1ccc(Cl)c([N+](=O)[O-])c1 [Compound 0017, 1-(4-chloro-3-nitrophenyl)-3-(4-fluorophenyl)urea]
- GI50 (SN12C; [3]): 2.95e-06 M
- CC50 (SN12C; [4]): 4.27e-05 M
- log10 [TGI (M)] (SN12C): −4.93 log10 M
- growth of a broad range of cancer cells [1]: inhibited the growth of a broad range of cancer cells
- GI50 (SK-MEL-2; [3]): 2.34e-06 M
- CC50 (SK-MEL-2; [4]): 2.51e-05 M
- log10 [TGI (M)] (SK-MEL-2): −5.23 log10 M
- GI50 (UO-31; [3]): 2.69e-06 M
- CC50 (UO-31; [4]): 3.47e-05 M
- log10 [TGI (M)] (UO-31): −4.97 log10 M
- GI50 (KM12; [3]): 3.31e-06 M
- CC50 (KM12; [4]): 9.12e-05 M
- log10 [TGI (M)] (KM12): −4.86 log10 M
- GI50 (MDA-MB-231; [3]): 2.51e-06 M
- CC50 (MDA-MB-231; [4]): 3.39e-05 M
- log10 [TGI (M)] (MDA-MB-231): −5.19 log10 M
- GI50 (OVCAR-5; [3]): 3.55e-06 M
- CC50 (OVCAR-5; [4]): 6.46e-05 M
- log10 [TGI (M)] (OVCAR-5): −4.83 log10 M
- log10 [TGI (M)] (786-0): −4.88 log10 M
- GI50 (786-0; [3]): 3.39e-06 M
- CC50 (786-0; [4]): 3.8e-05 M
- viability of C4-2 compared to BPH-1 [2]: preferentially inhibit the viability
- GI50 (U251; Homo sapiens, U-251, 48 h, read-out: log10 [GI50 (M)] (converted)): 3.16e-06 M
- CC50 (U251; Homo sapiens, U-251, 48 h, read-out: log10 [LC50 (M)] (converted)): 4.37e-05 M
- log10 [TGI (M)] (U251): −4.90 log10 M
- GI50 (SF-295; [3]): 2.29e-06 M
- CC50 (SF-295; [4]): 3.09e-05 M
- log10 [TGI (M)] (SF-295): −5.10 log10 M
- GI50 (TK-10; [3]): 4.07e-06 M
- CC50 (TK-10; [4]): 6.92e-05 M
- log10 [TGI (M)] (TK-10): −4.70 log10 M
- GI50 (NCI-H460; [3]): 2.69e-06 M
- CC50 (NCI-H460; [4]): 4.57e-05 M
- log10 [TGI (M)] (NCI-H460): −4.94 log10 M
- GI50 (CCRF-CEM; [3]): 3.31e-06 M
- CC50 (CCRF-CEM; [4]): ≥ 0.0001 M
- log10 [TGI (M)] (CCRF-CEM): −4.00 log10 M
- GI50 (NCI-H23; [3]): 2.63e-06 M
- CC50 (NCI-H23; [4]): 4.57e-05 M
- log10 [TGI (M)] (NCI-H23): −4.97 log10 M
- GI50 (PC-3; [3]): 1.58e-06 M
- CC50 (PC-3; [4]): 4.37e-05 M
- log10 [TGI (M)] (PC-3): −4.95 log10 M
- log10 [TGI (M)] (BT-549): −4.97 log10 M
- GI50 (BT-549; [3]): 2.88e-06 M
- CC50 (BT-549; [4]): 3.31e-05 M
- GI50 (SF-268; [3]): 4.47e-06 M
- CC50 (SF-268; [4]): 5.75e-05 M
- log10 [TGI (M)] (SF-268): −4.76 log10 M
